These compounds were tested against T1, Recombinant human cathepsin A (Homo sapiens, UniProt P10619) (assay: Cathepsin A inhibitory activity). Conditions: read-out: Activity (2): Cathepsin A inhibitory activity (IC50 class).
T1 construct: Recombinant human cathepsin A (residues 29-480, with a C-terminal 10-His tag); 10-His (C); purchased R&D Systems 1049-SE
T1 sequence (P10619 29-312 limits assumed): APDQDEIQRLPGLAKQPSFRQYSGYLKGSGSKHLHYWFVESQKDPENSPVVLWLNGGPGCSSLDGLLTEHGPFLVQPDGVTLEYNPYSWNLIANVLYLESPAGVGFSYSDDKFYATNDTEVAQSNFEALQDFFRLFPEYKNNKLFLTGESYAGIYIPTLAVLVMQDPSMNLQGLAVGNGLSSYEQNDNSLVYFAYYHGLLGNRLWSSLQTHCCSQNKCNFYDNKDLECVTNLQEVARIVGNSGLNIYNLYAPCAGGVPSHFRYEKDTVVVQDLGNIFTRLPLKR
T1 sequence (P10619 327-480 limits assumed): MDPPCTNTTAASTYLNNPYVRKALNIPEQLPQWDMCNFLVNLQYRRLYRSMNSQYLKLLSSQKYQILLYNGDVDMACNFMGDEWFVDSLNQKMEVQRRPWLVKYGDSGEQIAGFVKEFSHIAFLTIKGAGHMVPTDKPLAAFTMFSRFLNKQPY
Type: biochemical
Summary of the method: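 Read-out was microfluidic separation of cleaved vs. uncleaved Bodipy FL-bradykinin (2 μM), giving turnover, % inhibition and IC50. Compound and 833 ng/ml enzyme met for 15 min RT in pH 5.5 MES/DTT before substrate (15 min RT). The 29-480 His-tagged human enzyme was first activated by cathepsin L, then E-64 (10 μM).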
Work on `CC(C)[C@@](C)(O)COc1cc(C(=O)N[C@@H](CC(=O)O)c2ccc(F)cc2)nn1-c1ccccc1F` [Example 768, (S)-3-(4-Fluoro-phenyl)-3-{[1-(2-fluoro-phenyl)-5-((R)-2-hydroxy-2,3-dimethyl-butoxy)-1H-pyrazole-3-carbonyl]-amino}-propionic acid] yielded an IC50 of less than 100 nM.
In the case of `COc1cccc([C@H](CC(=O)O)NC(=O)c2cc(OC[C@@](C)(O)C(C)C)n(-c3ccccc3F)n2)c1OC` [Example 769], the IC50 is reported as less than 100 nM.
For `Cc1ccccc1[C@H](CC(=O)O)NC(=O)c1cc(OCC(C)(O)C(C)C)n(-c2ccccc2F)n1` (stereo partly drawn) [Example 770, (S)-3-{[1-(2-Fluoro-phenyl)-5-(2-hydroxy-2,3-dimethyl-butoxy)-1H-pyrazole-3-carbonyl]-amino}-3-o-tolyl-propionic acid], the IC50 was less than 100 nM.
For `CC(C)(C)[C@@](C)(O)COc1cc(C(=O)N[C@@H](CC(=O)O)c2ccc(F)cc2)nn1-c1ccccc1F` [Example 771, (S)-3-(4-Fluoro-phenyl)-3-{[1-(2-fluoro-phenyl)-5-((R)-2-hydroxy-2,3,3-trimethyl-butoxy)-1H-pyrazole-3-carbonyl]-amino}-propionic acid], the IC50 was less than 100 nM.
For `Cc1ccc([C@H](CC(=O)O)NC(=O)c2cc(OC[C@@](C)(O)C(C)C)n(-c3ccccc3F)n2)c(C)c1` [Example 772, (S)-3-(2,4-Dimethyl-phenyl)-3-{[1-(2-fluoro-phenyl)-5-((S)-2-hydroxy-2,3-dimethyl-butoxy)-1H-pyrazole-3-carbonyl]-amino}-propionic acid], the IC50 was less than 100 nM.
With `CC(C)(C)[C@](C)(O)COc1cc(C(=O)NC(CC(=O)O)C2CCCCC2)nn1-c1ccccc1F` (stereo partly drawn) [Example 773, 3-Cyclohexyl-3-{[1-(2-fluoro-phenyl)-5-((S)-2-hydroxy-2,3,3-trimethyl-butoxy)-1H-pyrazole-3-carbonyl]-amino}-propionic acid] the IC50 was less than 100 nM.
`CC(C)(C)[C@@](C)(O)COc1cc(C(=O)N[C@@H](CC(=O)O)c2cccc(Cl)c2)nn1-c1ccccc1F` [Example 774, (S)-3-(3-Chloro-phenyl)-3-{[1-(2-fluoro-phenyl)-5-((R)-2-hydroxy-2,3,3-trimethyl-butoxy)-1H-pyrazole-3-carbonyl]-amino}-propionic acid] was tested, and the IC50 was less than 100 nM.
`CC(C)C(C)(O)COc1cc(C(=O)N[C@@H](CC(=O)O)c2ccccc2Cl)nn1-c1ccccc1F` (stereo partly drawn) [Example 775, (S)-3-(2-Chloro-phenyl)-3-{[1-(2-fluoro-phenyl)-5-(2-hydroxy-2,3-dimethyl-butoxy)-1H-pyrazole-3-carbonyl]-amino}-propionic acid] showed an IC50 of less than 100 nM.
`CC(C)(C)[C@@H](O)COc1cc(C(=O)N[C@@H](CC(=O)O)c2cccc(Cl)c2Cl)nn1-c1ccccc1F` [Example 776, (S)-3-(2,3-Dichloro-phenyl)-3-{[1-(2-fluoro-phenyl)-5-((R)-2-hydroxy-3,3-dimethyl-butoxy)-1H-pyrazole-3-carbonyl]-amino}-propionic acid] was tested, and the IC50 was less than 100 nM.
Compound `CC(C)(C)C(=O)COc1cc(C(=O)N[C@@H](CC(=O)O)c2ccccc2Cl)nn1-c1ccccc1F` [Example 777, (S)-3-(2-Chloro-phenyl)-3-{[5-(3,3-dimethyl-2-oxo-butoxy)-1-(2-fluoro-phenyl)-1H-pyrazole-3-carbonyl]-amino}-propionic acid] has an IC50 of less than 100 nM.
Compound `CC(C)(C)[C@@](C)(O)COc1cc(C(=O)N[C@@H](CC(=O)O)c2cccc(C#N)c2)nn1-c1ccccc1F` [Example 778, (S)-3-(3-Cyano-phenyl)-3-{[1-(2-fluoro-phenyl)-5-((R)-2-hydroxy-2,3,3-trimethyl-butoxy)-1H-pyrazole-3-carbonyl]-amino}-propionic acid] has an IC50 of less than 100 nM.
`CC(C)(C)[C@@](C)(O)COc1cc(C(=O)N[C@@H](CC(=O)O)c2cccc(F)c2)nn1-c1ccccc1F` [Example 779, (S)-3-(3-Fluoro-phenyl)-3-{[1-(2-fluoro-phenyl)-5-((R)-2-hydroxy-2,3,3-trimethyl-butoxy)-1H-pyrazole-3-carbonyl]-amino}-propionic acid] was tested, and the IC50 was less than 100 nM.
Compound `Cc1ccc([C@H](CC(=O)O)NC(=O)c2cc(OC[C@](C)(O)C(C)(C)C)n(-c3ccccc3F)n2)cc1` [Example 780, (S)-3-{[1-(2-Fluoro-phenyl)-5-((R)-2-hydroxy-2,3,3-trimethyl-butoxy)-1H-pyrazole-3-carbonyl]-amino}-3-p-tolyl-propionic acid] has an IC50 of less than 100 nM.
`Cc1ccc([C@H](CC(=O)O)NC(=O)c2cc(OC[C@@](C)(O)C(C)(C)C)n(-c3ccccc3F)n2)cc1` [Example 781, (S)-3-{[1-(2-Fluoro-phenyl)-5-((S)-2-hydroxy-2,3,3-trimethyl-butoxy)-1H-pyrazole-3-carbonyl]-amino}-3-p-tolyl-propionic acid] was tested, and the IC50 was less than 100 nM.
Compound `CC(C)C(C)(O)COc1cc(C(=O)N[C@@H](CC(=O)O)c2cccc(F)c2)nn1-c1ccccc1F` (stereo partly drawn) [Example 782, (S)-3-(3-Fluoro-phenyl)-3-{[1-(2-fluoro-phenyl)-5-(2-hydroxy-2,3-dimethyl-butoxy)-1H-pyrazole-3-carbonyl]-amino}-propionic acid] has an IC50 of less than 100 nM.
`COc1ccccc1[C@H](CC(=O)O)NC(=O)c1cc(OC[C@@](C)(O)C(C)C)n(-c2ccccc2F)n1` [Example 783, (S)-3-{[1-(2-Fluoro-phenyl)-5-((S)-2-hydroxy-2,3-dimethyl-butoxy)-1H-pyrazole-3-carbonyl]-amino}-3-(2-methoxy-phenyl)-propionic acid] gave an IC50 of less than 100 nM.
Work on `CC(C)[C@](C)(O)COc1cc(C(=O)N[C@@H](CC(=O)O)c2ccccc2C(F)(F)F)nn1-c1ccccc1F` [Example 784, (S)-3-{[1-(2-Fluoro-phenyl)-5-((S)-2-hydroxy-2,3-dimethyl-butoxy)-1H-pyrazole-3-carbonyl]-amino}-3-(2-trifluoromethyl-phenyl)-propionic acid] yielded an IC50 of less than 100 nM.
`CC(C)C(C)(O)COc1cc(C(=O)N[C@@H](CC(=O)O)c2cccc(Cl)c2)nn1-c1ccccc1F` (stereo partly drawn) [Example 785, (S)-3-(3-Chloro-phenyl)-3-{[1-(2-fluoro-phenyl)-5-(2-hydroxy-2,3-dimethyl-butoxy)-1H-pyrazole-3-carbonyl]-amino}-propionic acid] was tested, and the IC50 was less than 100 nM.
Compound `CC(C)[C@@](C)(O)COc1cc(C(=O)NC(CC(=O)O)C2CCCCC2)nn1-c1ccccc1F` (stereo partly drawn) [Example 786, 3-Cyclohexyl-3-{[1-(2-fluoro-phenyl)-5-((R)-2-hydroxy-2,3-dimethyl-butoxy)-1H-pyrazole-3-carbonyl]-amino}-propionic acid] has an IC50 of less than 100 nM.
`Cc1ccc([C@H](CC(=O)O)NC(=O)c2cc(OCC(C)(O)C(C)C)n(-c3ccccc3F)n2)cc1` (stereo partly drawn) [Example 787, (S)-3-{[1-(2-Fluoro-phenyl)-5-(2-hydroxy-2,3-dimethyl-butoxy)-1H-pyrazole-3-carbonyl]-amino}-3-p-tolyl-propionic acid] gave an IC50 of less than 100 nM.
With `Cc1ccc([C@H](CC(=O)O)NC(=O)c2cc(OC[C@H](O)C(C)(C)C)n(-c3ccccc3F)n2)cc1` [Example 788, (S)-3-{[1-(2-Fluoro-phenyl)-5-((R)-2-hydroxy-3,3-dimethyl-butoxy)-1H-pyrazole-3-carbonyl]-amino}-3-p-tolyl-propionic acid] the IC50 was less than 100 nM.
In the case of `CC(C)(C)[C@](C)(O)COc1cc(C(=O)N[C@@H](CC(=O)O)c2ccccc2Cl)nn1-c1ccccc1F` [Example 789, (S)-3-(2-Chloro-phenyl)-3-{[1-(2-fluoro-phenyl)-5-((S)-2-hydroxy-2,3,3-trimethyl-butoxy)-1H-pyrazole-3-carbonyl]-amino}-propionic acid], the IC50 is reported as less than 100 nM.
Work on `CC(C)(C)[C@@](C)(O)COc1cc(C(=O)N[C@@H](CC(=O)O)c2ccccc2Cl)nn1-c1ccccc1F` [Example 790, (S)-3-(2-Chloro-phenyl)-3-{[1-(2-fluoro-phenyl)-5-((R)-2-hydroxy-2,3,3-trimethyl-butoxy)-1H-pyrazole-3-carbonyl]-amino}-propionic acid] yielded an IC50 of less than 100 nM.
Compound `Cc1ccc([C@H](CC(=O)O)NC(=O)c2cc(OCC(=O)C(C)(C)C)n(-c3ccccc3F)n2)cc1` [Example 791, (S)-3-{[5-(3,3-Dimethyl-2-oxo-butoxy)-1-(2-fluoro-phenyl)-1H-pyrazole-3-carbonyl]-amino}-3-p-tolyl-propionic acid] has an IC50 of less than 100 nM.
With `Cc1cccc([C@H](CC(=O)O)NC(=O)c2cc(OC[C@@H](O)C(C)(C)C)n(-c3ccccc3F)n2)c1` [Example 792, (S)-3-{[1-(2-Fluoro-phenyl)-5-((S)-2-hydroxy-3,3-dimethyl-butoxy)-1H-pyrazole-3-carbonyl]-amino}-3-m-tolyl-propionic acid] the IC50 was less than 100 nM.
For `CC(C)(C)[C@@H](O)COc1cc(C(=O)N[C@@H](CC(=O)O)c2ccccc2Cl)nn1-c1ccccc1F` [Example 793, (S)-3-(2-Chloro-phenyl)-3-{[1-(2-fluoro-phenyl)-5-((R)-2-hydroxy-3,3-dimethyl-butoxy)-1H-pyrazole-3-carbonyl]-amino}-propionic acid], the IC50 was less than 100 nM.

Same assay, conditions: recombinant human cathepsin A 833 ng/ml, Bodipy FL-labeled bradykinin 2 μM, pH 5.5; read-out: CATH-A IC50
Compound `CC(C)[C@@](C)(O)COc1cc(C(=O)N[C@@H](CC(=O)O)c2ccc(F)cc2)nn1-c1ccccc1F` [Example 768, (S)-3-(4-Fluoro-phenyl)-3-{[1-(2-fluoro-phenyl)-5-((R)-2-hydroxy-2,3-dimethyl-butoxy)-1H-pyrazole-3-carbonyl]-amino}-propionic acid] has an IC50 of 1.15 nM.
With `CC(C)(C)[C@@](C)(O)COc1cc(C(=O)N[C@@H](CC(=O)O)c2ccc(F)cc2)nn1-c1ccccc1F` [Example 771, (S)-3-(4-Fluoro-phenyl)-3-{[1-(2-fluoro-phenyl)-5-((R)-2-hydroxy-2,3,3-trimethyl-butoxy)-1H-pyrazole-3-carbonyl]-amino}-propionic acid] the IC50 was 1.97 nM.
